Assay results from paper PMC3914206.

Tests used:
Type in all cases: binding
[1] = target: T1, panel of 442 kinases (Homo sapiens, UniProt Q9P0L2); settings: Compound Concentration 10 µM
T1 construct: purchased KINOMEscan
From the text: (§1) We assessed the selectivity of members of this scaffold using the KINOMEscan methodology across a near comprehensive panel of 442 kinases [[18,27]].

[2] = target: T2, panel of 442 kinases (Homo sapiens, UniProt Q16620); settings: kinase TRKB; compound concentration 10 µM
T2 construct: purchased KINOMEscan
From the text: as §1

[3] = target: T3, panel of 442 kinases (Homo sapiens, UniProt Q7KZI7); settings: Compound Concentration 10 µM
T3 construct: purchased KINOMEscan
From the text: as §1

[4] = target: T4, panel of 442 kinases (Homo sapiens, UniProt P10721, A829P); settings: Compound Concentration 10 µM
T4 construct: purchased KINOMEscan
From the text: as §1

T1 sequence (Q9P0L2 whole entry): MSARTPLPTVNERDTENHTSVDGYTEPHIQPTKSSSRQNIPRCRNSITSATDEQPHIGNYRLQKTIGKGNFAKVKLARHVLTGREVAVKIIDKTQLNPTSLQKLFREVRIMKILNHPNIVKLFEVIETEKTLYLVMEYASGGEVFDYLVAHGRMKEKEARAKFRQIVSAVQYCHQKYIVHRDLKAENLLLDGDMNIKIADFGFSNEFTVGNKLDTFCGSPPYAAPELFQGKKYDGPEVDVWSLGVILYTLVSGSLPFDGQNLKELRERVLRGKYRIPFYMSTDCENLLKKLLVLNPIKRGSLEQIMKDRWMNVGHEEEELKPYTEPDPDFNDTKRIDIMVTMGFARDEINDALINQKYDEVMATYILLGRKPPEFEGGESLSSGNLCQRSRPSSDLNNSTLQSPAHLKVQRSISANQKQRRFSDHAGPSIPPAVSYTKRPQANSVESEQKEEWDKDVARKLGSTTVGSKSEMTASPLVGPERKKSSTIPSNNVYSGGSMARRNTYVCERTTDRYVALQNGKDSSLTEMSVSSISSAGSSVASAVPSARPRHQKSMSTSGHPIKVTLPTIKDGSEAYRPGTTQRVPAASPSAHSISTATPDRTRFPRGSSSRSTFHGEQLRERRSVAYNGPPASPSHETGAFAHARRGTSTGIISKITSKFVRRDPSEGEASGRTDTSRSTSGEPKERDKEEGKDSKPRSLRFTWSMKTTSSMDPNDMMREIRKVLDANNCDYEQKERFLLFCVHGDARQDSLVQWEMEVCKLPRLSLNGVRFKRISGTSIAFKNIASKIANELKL
T4 sequence (P10721 26-976 A829P): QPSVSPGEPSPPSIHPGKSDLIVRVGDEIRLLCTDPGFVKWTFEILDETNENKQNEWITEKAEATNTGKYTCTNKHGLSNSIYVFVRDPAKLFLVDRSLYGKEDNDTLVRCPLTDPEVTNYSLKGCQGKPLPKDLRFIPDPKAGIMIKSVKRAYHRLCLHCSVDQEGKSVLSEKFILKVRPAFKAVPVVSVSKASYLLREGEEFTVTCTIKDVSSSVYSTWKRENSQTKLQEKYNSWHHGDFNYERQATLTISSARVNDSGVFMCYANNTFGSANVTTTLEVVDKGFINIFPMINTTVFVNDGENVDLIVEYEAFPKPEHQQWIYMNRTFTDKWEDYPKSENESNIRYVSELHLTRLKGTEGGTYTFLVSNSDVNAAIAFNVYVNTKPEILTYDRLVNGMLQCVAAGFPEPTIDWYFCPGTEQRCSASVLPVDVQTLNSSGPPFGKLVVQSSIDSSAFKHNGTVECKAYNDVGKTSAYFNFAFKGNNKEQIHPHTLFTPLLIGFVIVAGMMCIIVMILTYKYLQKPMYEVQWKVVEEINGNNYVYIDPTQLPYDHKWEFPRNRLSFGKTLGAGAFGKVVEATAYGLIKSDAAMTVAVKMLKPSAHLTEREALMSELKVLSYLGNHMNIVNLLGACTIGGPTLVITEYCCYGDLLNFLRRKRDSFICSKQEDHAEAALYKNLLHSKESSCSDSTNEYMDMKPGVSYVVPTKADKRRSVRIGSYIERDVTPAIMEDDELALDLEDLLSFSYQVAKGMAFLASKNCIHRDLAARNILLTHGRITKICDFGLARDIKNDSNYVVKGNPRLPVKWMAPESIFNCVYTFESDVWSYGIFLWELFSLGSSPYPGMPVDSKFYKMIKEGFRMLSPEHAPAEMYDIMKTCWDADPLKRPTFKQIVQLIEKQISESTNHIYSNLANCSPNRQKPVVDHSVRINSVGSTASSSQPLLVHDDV
T3 sequence (Q7KZI7 whole entry): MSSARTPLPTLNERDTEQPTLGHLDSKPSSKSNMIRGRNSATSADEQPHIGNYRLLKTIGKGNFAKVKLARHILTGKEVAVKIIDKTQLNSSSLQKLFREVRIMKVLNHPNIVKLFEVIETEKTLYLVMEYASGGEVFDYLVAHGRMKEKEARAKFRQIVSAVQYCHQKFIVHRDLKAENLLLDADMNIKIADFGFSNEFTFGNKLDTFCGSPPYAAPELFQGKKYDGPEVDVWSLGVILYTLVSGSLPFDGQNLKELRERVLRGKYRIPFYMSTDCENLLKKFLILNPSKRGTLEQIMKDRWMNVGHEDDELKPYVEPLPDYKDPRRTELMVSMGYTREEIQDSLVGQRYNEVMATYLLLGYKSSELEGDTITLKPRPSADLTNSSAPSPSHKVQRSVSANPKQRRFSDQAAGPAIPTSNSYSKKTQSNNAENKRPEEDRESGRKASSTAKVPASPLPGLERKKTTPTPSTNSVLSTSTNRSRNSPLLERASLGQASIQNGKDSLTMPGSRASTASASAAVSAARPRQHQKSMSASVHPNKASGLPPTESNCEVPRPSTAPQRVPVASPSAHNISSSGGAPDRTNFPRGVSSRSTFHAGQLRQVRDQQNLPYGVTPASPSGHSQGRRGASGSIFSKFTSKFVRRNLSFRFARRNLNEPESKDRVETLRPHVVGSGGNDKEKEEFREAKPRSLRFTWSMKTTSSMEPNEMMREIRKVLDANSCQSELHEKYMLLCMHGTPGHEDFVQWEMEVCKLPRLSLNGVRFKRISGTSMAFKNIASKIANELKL
T2 sequence (Q16620 32-822): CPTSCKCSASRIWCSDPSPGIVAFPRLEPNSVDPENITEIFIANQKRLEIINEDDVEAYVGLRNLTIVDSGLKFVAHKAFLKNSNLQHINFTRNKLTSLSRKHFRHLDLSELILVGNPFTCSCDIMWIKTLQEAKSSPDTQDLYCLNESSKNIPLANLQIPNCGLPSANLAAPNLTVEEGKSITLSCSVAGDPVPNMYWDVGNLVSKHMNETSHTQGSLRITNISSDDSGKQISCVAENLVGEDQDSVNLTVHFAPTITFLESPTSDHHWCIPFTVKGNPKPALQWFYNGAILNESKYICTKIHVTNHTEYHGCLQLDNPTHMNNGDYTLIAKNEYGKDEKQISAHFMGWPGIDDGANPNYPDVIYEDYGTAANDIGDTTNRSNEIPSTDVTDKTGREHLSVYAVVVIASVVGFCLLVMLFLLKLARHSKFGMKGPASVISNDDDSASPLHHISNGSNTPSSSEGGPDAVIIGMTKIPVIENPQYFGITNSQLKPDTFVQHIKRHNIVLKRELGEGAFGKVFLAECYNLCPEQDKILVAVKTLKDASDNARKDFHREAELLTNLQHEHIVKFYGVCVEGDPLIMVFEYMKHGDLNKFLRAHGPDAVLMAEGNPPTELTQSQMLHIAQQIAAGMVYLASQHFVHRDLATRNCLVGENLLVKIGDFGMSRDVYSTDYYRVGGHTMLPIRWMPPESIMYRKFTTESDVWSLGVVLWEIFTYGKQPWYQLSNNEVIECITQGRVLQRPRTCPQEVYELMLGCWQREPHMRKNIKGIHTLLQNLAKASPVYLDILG

Structure (SMILES)	KINOMEscan: MARK1 [1]	% Ctrl, TRKB [2] [% Ctrl]	KINOMEscan: MARK2 [3]	KINOMEscan: KIT(A829P) [4]
COc1cc(C(=O)N2CCC(N3CCN(C)CC3)CC2)ccc1Nc1ncc2c(n1)N(C)c1ccccc1C(=O)N2C [15 (LRRK2-IN-1)]	87	100	100	100
COc1cc(C(=O)N2CCC(N3CCN(C)CC3)CC2)ccc1Nc1ncc2c(n1)N1CCc3cccc(c31)C(=O)N2C [Compound 24]	83			
COc1cc(C(=O)N2CCC(N3CCN(C)CC3)CC2)ccc1Nc1ncc2c(n1)N(C1CCCC1)c1ccccc1C(=O)N2C [Compound 25, 11-cyclopentyl-2-((2-methoxy-4-(4-(4-methylpiperazin-1-yl)piperidine-1-carbonyl)phenyl)amino)-5-methyl-5H-benzo[e]pyrimido[5,4-b][1,4]diazepin-6(11H)-one]	99	83	98	95
CCOc1cc(C(=O)N2CCC(N3CCN(C)CC3)CC2)ccc1Nc1ncc2c(n1)N(C1CCCC1)c1ccccc1C(=O)N2C [Compound 26]	100	100	96	74
